Data as given in ChEMBL document CHEMBL4229569, “Structure-Based Design of 1-Heteroaryl-1,3-propanediamine Derivatives as a Novel Series of CC-Chemokine Receptor 5 Antagonists” (J Med Chem, 2018).

Key:
[1] = Drug level in human liver cells assessed as CYP450-mediated compound formation treated with 4,4-Difluoro-N-(3-((1R,3S,5S)-3-(3-isopropyl-5-methyl-4H-1,2,4-triazol-4-yl)-8-azabicyclo[3.2.1]octan-8-yl)-1-(thiophen-3-yl)-propyl)cyclohexane-1-carboxamide by UPLC/Q-TOF mass spectrometric analysis; type: ADME, cell-based; conditions: recombinant enzyme
[2] = Drug level in dog liver cells assessed as CYP450-mediated compound formation treated with 4,4-Difluoro-N-(3-((1R,3S,5S)-3-(3-isopropyl-5-methyl-4H-1,2,4-triazol-4-yl)-8-azabicyclo[3.2.1]octan-8-yl)-1-(thiophen-3-yl)-propyl)cyclohexane-1-carboxamide by UPLC/Q-TOF mass spectrometric analysis; type: ADME, cell-based, Canis lupus familiaris; conditions: recombinant enzyme
[3] = Drug level in rat liver cells assessed as CYP450-mediated compound formation treated with 4,4-Difluoro-N-(3-((1R,3S,5S)-3-(3-isopropyl-5-methyl-4H-1,2,4-triazol-4-yl)-8-azabicyclo[3.2.1]octan-8-yl)-1-(thiophen-3-yl)-propyl)cyclohexane-1-carboxamide by UPLC/Q-TOF mass spectrometric analysis; type: ADME, cell-based; conditions: recombinant enzyme
[4] = Drug level in mouse liver cells assessed as CYP450-mediated compound formation treated with 4,4-Difluoro-N-(3-((1R,3S,5S)-3-(3-isopropyl-5-methyl-4H-1,2,4-triazol-4-yl)-8-azabicyclo[3.2.1]octan-8-yl)-1-(thiophen-3-yl)-propyl)cyclohexane-1-carboxamide by UPLC/Q-TOF mass spectrometric analysis; type: ADME, cell-based; conditions: recombinant enzyme
[5] = Drug level in rat liver cells assessed as CYP450-mediated compound formation treated with maraviroc by Q-TOF mass spectrometric analysis; type: ADME, cell-based; conditions: recombinant enzyme
[6] = Drug level in dog liver cells assessed as CYP450-mediated compound formation treated with maraviroc by Q-TOF mass spectrometric analysis; type: ADME, cell-based, Canis lupus familiaris; conditions: recombinant enzyme
[7] = Drug level in human liver cells assessed as CYP450-mediated compound formation treated with maraviroc by Q-TOF mass spectrometric analysis; type: ADME, cell-based; conditions: recombinant enzyme
[8] = target: C-C chemokine receptor type 5 (Homo sapiens, UniProt P51681); assay: Antagonist activity at CCR5 (unknown origin) expressed in HEK293 cells co-expressing Galpha16 assessed as inhibition of RANTES-induced calcium flux preincubated for 10 mins followed by RANTES addition by fluo-4AM-based fluorescence assay; type: functional, cell-based
Chain of C-C chemokine receptor type 5 (P51681 whole entry): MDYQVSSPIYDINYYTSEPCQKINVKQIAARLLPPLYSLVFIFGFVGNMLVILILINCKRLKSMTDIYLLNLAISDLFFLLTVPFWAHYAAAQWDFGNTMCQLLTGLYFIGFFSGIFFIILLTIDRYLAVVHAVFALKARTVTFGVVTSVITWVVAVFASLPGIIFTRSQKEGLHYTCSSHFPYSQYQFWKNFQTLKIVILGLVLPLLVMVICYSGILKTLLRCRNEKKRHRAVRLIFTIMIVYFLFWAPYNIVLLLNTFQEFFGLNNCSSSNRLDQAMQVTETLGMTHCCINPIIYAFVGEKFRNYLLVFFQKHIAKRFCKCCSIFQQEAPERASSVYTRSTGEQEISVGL

[9] = Cytotoxicity against human TZM-bl cells after 48 hrs by MTT assay; type: cell-based
[10] = Cmax in Sprague-Dawley rat at 20 mg/kg, po by LC-MS/MS analysis; type: ADME, organism-based; parameters: dose 20 mg/kg, route oral; conditions: in vivo
[11] = Tmax in Sprague-Dawley rat at 20 mg/kg, po by LC-MS/MS analysis; type: ADME, organism-based; conditions: in vivo
[12] = Half life in Sprague-Dawley rat at 20 mg/kg, po by LC-MS/MS analysis; type: ADME, organism-based; conditions: in vivo
[13] = AUC (0 to infinity) in Sprague-Dawley rat at 20 mg/kg, po by LC-MS/MS analysis; type: ADME, organism-based; parameters: dose 20 mg/kg, route oral, time infinity; conditions: in vivo
[14] = MRT in Sprague-Dawley rat at 20 mg/kg, po by LC-MS/MS analysis; type: ADME, organism-based; conditions: in vivo
[15] = Oral bioavailability in Sprague-Dawley rat at 20 mg/kg by LC-MS/MS analysis; type: ADME, organism-based; conditions: in vivo
[16] = Cmax in Sprague-Dawley rat at 10 mg/kg, iv by LC-MS/MS analysis; type: ADME, organism-based; parameters: dose 10 mg/kg, route intravenous; conditions: in vivo
[17] = Tmax in Sprague-Dawley rat at 10 mg/kg, iv by LC-MS/MS analysis; type: ADME, organism-based; conditions: in vivo
[18] = Half life in Sprague-Dawley rat at 10 mg/kg, iv by LC-MS/MS analysis; type: ADME, organism-based; conditions: in vivo
[19] = AUC (0 to infinity) in Sprague-Dawley rat at 10 mg/kg, iv by LC-MS/MS analysis; type: ADME, organism-based; parameters: dose 10 mg/kg, time infinity, route intravenous; conditions: in vivo
[20] = MRT in Sprague-Dawley rat at 10 mg/kg, iv by LC-MS/MS analysis; type: ADME, organism-based; conditions: in vivo
[21] = Clearance in Sprague-Dawley rat at 10 mg/kg, iv by LC-MS/MS analysis; type: ADME, organism-based; conditions: in vivo
[22] = Cmax in dog at 15 mg/kg, po by LC-MS/MS analysis; type: ADME, organism-based, Canis lupus familiaris; parameters: dose 15 mg/kg, route oral; conditions: in vivo
[23] = Tmax in dog at 15 mg/kg, po by LC-MS/MS analysis; type: ADME, organism-based, Canis lupus familiaris; conditions: in vivo
[24] = Half life in dog at 15 mg/kg, po by LC-MS/MS analysis; type: ADME, organism-based, Canis lupus familiaris; conditions: in vivo
[25] = AUC (0 to infinity) in dog at 15 mg/kg, po by LC-MS/MS analysis; type: ADME, organism-based, Canis lupus familiaris; parameters: dose 15 mg/kg, time infinity, route oral; conditions: in vivo
[26] = MRT in dog at 15 mg/kg, po by LC-MS/MS analysis; type: ADME, organism-based, Canis lupus familiaris; conditions: in vivo
[27] = Oral bioavailability in dog at 15 mg/kg by LC-MS/MS analysis; type: ADME, organism-based, Canis lupus familiaris; conditions: in vivo
[28] = Half life in dog at 3 mg/kg, iv by LC-MS/MS analysis; type: ADME, organism-based, Canis lupus familiaris; conditions: in vivo
[29] = AUC (0 to infinity) in dog at 3 mg/kg, iv by LC-MS/MS analysis; type: ADME, organism-based, Canis lupus familiaris; parameters: dose 3 mg/kg, route intravenous, time infinity; conditions: in vivo
[30] = MRT in dog at 3 mg/kg, iv by LC-MS/MS analysis; type: ADME, organism-based, Canis lupus familiaris; conditions: in vivo
[31] = Clearance in dog at 3 mg/kg, iv by LC-MS/MS analysis; type: ADME, organism-based, Canis lupus familiaris; conditions: in vivo
[32] = target: Voltage-gated inwardly rectifying potassium channel KCNH2 (Homo sapiens, UniProt Q12809); assay: Inhibition of human ERG expressed in CHO cells at holding potential of -80 mV after 60 secs by patch clamp assay; type: cell-based
Chain of Voltage-gated inwardly rectifying potassium channel KCNH2 (Q12809 whole entry): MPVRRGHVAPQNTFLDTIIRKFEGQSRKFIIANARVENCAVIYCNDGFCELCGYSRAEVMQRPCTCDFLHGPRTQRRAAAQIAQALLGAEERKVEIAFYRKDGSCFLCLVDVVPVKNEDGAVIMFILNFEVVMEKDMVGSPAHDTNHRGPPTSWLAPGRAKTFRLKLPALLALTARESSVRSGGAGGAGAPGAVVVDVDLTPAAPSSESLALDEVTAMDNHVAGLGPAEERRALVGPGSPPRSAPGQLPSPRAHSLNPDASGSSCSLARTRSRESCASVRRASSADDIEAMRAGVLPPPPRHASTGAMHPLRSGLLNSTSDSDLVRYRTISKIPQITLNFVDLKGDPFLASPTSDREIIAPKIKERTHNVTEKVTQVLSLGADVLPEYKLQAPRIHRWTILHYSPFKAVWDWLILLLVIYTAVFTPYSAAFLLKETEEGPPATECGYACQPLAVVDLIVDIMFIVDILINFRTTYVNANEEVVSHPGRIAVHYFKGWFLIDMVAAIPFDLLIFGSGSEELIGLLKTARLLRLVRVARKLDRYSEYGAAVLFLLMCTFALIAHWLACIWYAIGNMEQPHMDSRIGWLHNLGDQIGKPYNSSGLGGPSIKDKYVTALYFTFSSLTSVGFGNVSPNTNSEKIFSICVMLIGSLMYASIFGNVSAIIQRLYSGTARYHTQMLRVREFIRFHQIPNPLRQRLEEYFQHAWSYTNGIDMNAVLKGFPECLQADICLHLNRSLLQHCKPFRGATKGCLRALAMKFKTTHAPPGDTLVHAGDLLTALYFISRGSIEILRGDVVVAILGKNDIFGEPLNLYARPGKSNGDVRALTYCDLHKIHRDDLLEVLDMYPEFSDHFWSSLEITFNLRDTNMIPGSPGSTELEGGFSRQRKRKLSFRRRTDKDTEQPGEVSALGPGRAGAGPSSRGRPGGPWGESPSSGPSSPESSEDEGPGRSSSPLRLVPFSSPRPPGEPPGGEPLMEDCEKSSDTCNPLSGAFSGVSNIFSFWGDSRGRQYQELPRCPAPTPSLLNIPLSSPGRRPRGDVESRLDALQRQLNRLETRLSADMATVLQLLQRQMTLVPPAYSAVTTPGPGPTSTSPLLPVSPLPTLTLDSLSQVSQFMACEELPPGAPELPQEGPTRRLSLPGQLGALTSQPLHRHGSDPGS

Cytochrome P450 1A2 = target: T1, Cytochrome P450 1A2 (Homo sapiens, UniProt P05177); assay: Inhibition of CYP1A2 (unknown origin); type: ADME
T1 sequence (P05177 whole entry): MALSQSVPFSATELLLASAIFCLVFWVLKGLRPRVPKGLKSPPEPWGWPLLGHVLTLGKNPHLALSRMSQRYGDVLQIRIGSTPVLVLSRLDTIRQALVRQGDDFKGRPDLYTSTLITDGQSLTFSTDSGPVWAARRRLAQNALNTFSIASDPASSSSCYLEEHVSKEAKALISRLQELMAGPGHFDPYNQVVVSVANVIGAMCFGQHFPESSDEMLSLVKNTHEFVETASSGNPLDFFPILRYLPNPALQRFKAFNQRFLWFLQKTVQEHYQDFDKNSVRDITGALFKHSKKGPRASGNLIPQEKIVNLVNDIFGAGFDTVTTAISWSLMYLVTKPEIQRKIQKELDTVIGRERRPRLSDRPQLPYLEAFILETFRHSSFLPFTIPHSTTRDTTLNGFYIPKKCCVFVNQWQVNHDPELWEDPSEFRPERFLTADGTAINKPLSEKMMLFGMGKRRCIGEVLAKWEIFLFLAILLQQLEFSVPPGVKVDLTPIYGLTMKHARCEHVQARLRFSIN

Cytochrome P450 2C9 = Cytochrome P450 2C9 (Homo sapiens, UniProt P11712); assay: Inhibition of CYP2C9 (unknown origin); type: ADME
Chain of Cytochrome P450 2C9 (P11712 whole entry): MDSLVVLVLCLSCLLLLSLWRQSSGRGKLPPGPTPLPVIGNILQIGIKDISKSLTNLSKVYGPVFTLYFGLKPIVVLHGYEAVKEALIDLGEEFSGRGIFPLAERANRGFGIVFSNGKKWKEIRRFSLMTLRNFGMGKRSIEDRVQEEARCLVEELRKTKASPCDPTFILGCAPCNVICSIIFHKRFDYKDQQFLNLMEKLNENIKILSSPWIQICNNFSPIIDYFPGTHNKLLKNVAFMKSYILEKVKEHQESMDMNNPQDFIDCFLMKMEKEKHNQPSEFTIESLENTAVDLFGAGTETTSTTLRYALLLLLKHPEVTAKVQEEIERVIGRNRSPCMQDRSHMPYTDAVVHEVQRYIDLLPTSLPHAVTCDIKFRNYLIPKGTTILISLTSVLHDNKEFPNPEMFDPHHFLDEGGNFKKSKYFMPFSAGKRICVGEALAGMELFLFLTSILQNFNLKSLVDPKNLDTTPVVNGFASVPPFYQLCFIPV

Cytochrome P450 2C19 = Cytochrome P450 2C19 (Homo sapiens, UniProt P33261); assay: Inhibition of CYP2C19 (unknown origin); type: ADME
Chain of Cytochrome P450 2C19 (P33261 whole entry): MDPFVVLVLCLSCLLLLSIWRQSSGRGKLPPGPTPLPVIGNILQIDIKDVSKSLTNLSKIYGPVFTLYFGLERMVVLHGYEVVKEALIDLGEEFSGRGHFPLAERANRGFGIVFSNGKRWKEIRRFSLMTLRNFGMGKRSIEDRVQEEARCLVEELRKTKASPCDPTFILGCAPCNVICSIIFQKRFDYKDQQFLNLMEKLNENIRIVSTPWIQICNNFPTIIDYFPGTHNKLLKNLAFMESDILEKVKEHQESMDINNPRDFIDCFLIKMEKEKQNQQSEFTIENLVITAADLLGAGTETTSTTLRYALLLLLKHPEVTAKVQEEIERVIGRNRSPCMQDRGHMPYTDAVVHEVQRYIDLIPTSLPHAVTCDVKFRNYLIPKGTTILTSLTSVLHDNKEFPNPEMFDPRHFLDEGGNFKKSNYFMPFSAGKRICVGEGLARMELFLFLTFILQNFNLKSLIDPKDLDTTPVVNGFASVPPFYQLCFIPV

Cytochrome P450 2D6 = Cytochrome P450 2D6 (Homo sapiens, UniProt P10635); assay: Inhibition of CYP2D6 (unknown origin); type: ADME
Chain of Cytochrome P450 2D6 (P10635 whole entry): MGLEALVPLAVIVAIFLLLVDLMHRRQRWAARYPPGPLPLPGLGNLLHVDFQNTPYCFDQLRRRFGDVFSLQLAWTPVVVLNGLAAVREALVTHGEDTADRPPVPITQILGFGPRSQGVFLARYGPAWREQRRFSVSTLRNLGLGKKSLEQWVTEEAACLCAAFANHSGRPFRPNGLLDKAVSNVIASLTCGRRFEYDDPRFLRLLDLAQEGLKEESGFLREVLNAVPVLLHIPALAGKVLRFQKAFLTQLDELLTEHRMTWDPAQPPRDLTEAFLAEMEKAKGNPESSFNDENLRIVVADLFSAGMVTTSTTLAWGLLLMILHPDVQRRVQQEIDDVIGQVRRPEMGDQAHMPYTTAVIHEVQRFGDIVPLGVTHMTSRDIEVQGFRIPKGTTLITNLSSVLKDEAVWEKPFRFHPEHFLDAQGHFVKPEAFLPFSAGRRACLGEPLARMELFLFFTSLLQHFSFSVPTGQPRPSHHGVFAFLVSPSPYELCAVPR

Cytochrome P450 3A4 [33] = target: T2, Cytochrome P450 3A4 (Homo sapiens, UniProt P08684); assay: Inhibition of CYP3A4 (unknown origin) using midazolam as substrate; type: ADME
T2 sequence (P08684 whole entry): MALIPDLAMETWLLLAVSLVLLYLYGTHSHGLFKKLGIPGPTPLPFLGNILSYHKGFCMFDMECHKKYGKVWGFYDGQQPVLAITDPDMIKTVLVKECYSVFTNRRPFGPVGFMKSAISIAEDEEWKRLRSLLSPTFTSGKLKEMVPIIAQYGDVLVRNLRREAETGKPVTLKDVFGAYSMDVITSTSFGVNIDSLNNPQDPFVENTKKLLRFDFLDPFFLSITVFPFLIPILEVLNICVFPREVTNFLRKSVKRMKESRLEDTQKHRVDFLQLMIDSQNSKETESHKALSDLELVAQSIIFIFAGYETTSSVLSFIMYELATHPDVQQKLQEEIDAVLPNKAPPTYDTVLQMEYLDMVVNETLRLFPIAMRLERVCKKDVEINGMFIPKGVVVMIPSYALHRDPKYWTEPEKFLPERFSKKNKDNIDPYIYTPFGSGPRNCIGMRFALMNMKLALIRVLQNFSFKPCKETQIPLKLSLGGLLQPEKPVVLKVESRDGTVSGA

Cytochrome P450 3A4 [34] = target: T2, Cytochrome P450 3A4; assay: Inhibition of CYP3A4 (unknown origin) using testosterone as substrate; type: ADME
in vitro [35] = conditions: human, TZM-bl cells
Description: Therapeutic index, ratio of CC50 for human TZM-bl cells to EC50 for CCR5-dependent HIV1 SF162 infected in human TZM-bl cells

in vitro [36] = conditions: human, PBMC
Description: Therapeutic index, ratio of CC50 for human PBMC to IC50 for CCR5-dependent HIV1 SF162 infected in human PBMC cells

in vitro [37] = conditions: human, HOS cells
Description: Therapeutic index, ratio of CC50 for human HOS cells to IC50 for CCR5-dependent HIV1 SF162 infected in human HOS cells

in vitro [38] = conditions: human, PBMC; remark: listed apart in the source
Description: Therapeutic index, ratio of CC50 for human PBMC to IC50 for CCR5-dependent HIV1 KM018 infected in human PBMC

in vitro [39] = conditions: human, PBMC; remark: listed apart in the source
Description: Therapeutic index, ratio of CC50 for human PBMC to IC50 for CCR5-dependent HIV1 Ba-L infected in human PBMC

in vitro [40] = conditions: human, HOS cells; remark: listed apart in the source
Description: Therapeutic index, ratio of CC50 for human HOS cells to IC50 for CCR5-dependent HIV1 Ba-L infected in human HOS cells

in vitro [41] = conditions: human, PM1 cells
Description: Therapeutic index, ratio of CC50 for human PM1 cells to IC50 for CCR5-dependent HIV1 Ba-L infected in human PM1 cells

[42] = tested on: Human immunodeficiency virus 1; assay: microbe, parasite or virus in culture; conditions: Human immunodeficiency virus 1, SF162, TZM-bl, 48 h
Description: Antiviral activity against CCR5-dependent HIV1 SF162 infected in human TZM-bl cells assessed as reduction in virus infection measured after 48 hrs post infection by luciferase reporter gene assay

[43] = tested on: Human immunodeficiency virus 1; assay: microbe, parasite or virus in culture; conditions: Human immunodeficiency virus 1, SF162, PBMC, 168 h
Description: Antiviral activity against CCR5-dependent HIV1 SF162 infected in human PBMC assessed as reduction in virus infection measured after 7 days by luciferase reporter gene assay

[44] = tested on: Human immunodeficiency virus 1; assay: microbe, parasite or virus in culture; conditions: Human immunodeficiency virus 1, SF162, HOS, 120 h
Description: Antiviral activity against CCR5-dependent HIV1 SF162 infected in human HOS cells assessed as reduction in virus infection measured after 5 days by luciferase reporter gene assay

[45] = tested on: Human immunodeficiency virus 1; assay: microbe, parasite or virus in culture; conditions: Human immunodeficiency virus 1, KM018, PBMC, 168 h
Description: Antiviral activity against CCR5-dependent HIV1 KM018 infected in human PBMC assessed as reduction in virus infection measured after 7 days by luciferase reporter gene assay

[46] = tested on: Human immunodeficiency virus 1; assay: microbe, parasite or virus in culture; conditions: Human immunodeficiency virus 1, Ba-L, PBMC, 168 h
Description: Antiviral activity against CCR5-dependent HIV1 Ba-L infected in human PBMC assessed as reduction in virus infection measured 7 days by luciferase reporter gene assay

[47] = tested on: Human immunodeficiency virus 1; assay: microbe, parasite or virus in culture; conditions: Human immunodeficiency virus 1, Ba-L, HOS, 120 h
Description: Antiviral activity against CCR5-dependent HIV1 Ba-L infected in human HOS cells assessed as reduction in virus infection measured after 5 days by luciferase reporter gene assay

[48] = tested on: Human immunodeficiency virus 1; assay: microbe, parasite or virus in culture; conditions: Human immunodeficiency virus 1, Ba-L, PM1, 120 h
Description: Antiviral activity against CCR5-dependent HIV1 Ba-L infected in human PM1 cells assessed as reduction in virus infection measured after 5 days by luciferase reporter gene assay

Cc1nnc(C(C)C)n1[C@@H]1C[C@H]2CC[C@@H](C1)N2CC[C@H](NC(=O)C1CCC(F)CC1)c1ccsc1 (some centres not stated)
Drug uptake [1]: Active
Drug uptake [2]: Active
Drug uptake [3]: Active
Drug uptake [4]: Active
Drug uptake [5]: Active
Drug uptake [6]: Active
Drug uptake [7]: Active

Cc1nnc(C(C)C)n1[C@@H]1C[C@H]2CC[C@@H](C1)N2CC[C@H](NC(=O)C1CCCC1)c1cccs1
IC50 [8]: 3.1 nM
CC50 at 48 h [9]: > 200000 nM
Cmax [10]: 436 ng/mL
Tmax [11]: 2 h
half-life [12]: 1.65 h
AUC(0-inf) [13]: 1670 ng·h/mL
MRT [14]: 3.02 h
bioavailability [15]: 33.4%
Cmax [16]: 2220 ng/mL
Tmax [17]: 0.25 h
half-life [18]: 1.31 h
AUC(0-inf) [19]: 2500 ng·h/mL
MRT [20]: 0.91 h
clearance [21]: 66.5 mL/min/kg
Cmax [22]: 1160 ng/mL
Tmax [23]: 0.8 h
half-life [24]: 2.5 h
AUC(0-inf) [25]: 2160 ng·h/mL
MRT [26]: 2.4 h
bioavailability [27]: 38.1%
half-life [28]: 0.9 h
AUC(0-inf) [29]: 1100 ng·h/mL
MRT [30]: 0.7 h
clearance [31]: 46.7 mL/min/kg
IC50 [32]: 1520 nM
IC50 (Cytochrome P450 1A2): > 25000 nM
IC50 (Cytochrome P450 2C9): > 25000 nM
IC50 (Cytochrome P450 2C19): > 25000 nM
IC50 (Cytochrome P450 2D6): 16800 nM
IC50 (Cytochrome P450 3A4 [33]): > 25000 nM
IC50 (Cytochrome P450 3A4 [34]): > 25000 nM
selectivity ratio (in vitro [35]): > 150000
selectivity ratio (in vitro [36]): 6100
selectivity ratio (in vitro [37]): 25000
selectivity ratio (in vitro [38]): 4000
selectivity ratio (in vitro [39]): 5900
selectivity ratio (in vitro [40]): 330000
selectivity ratio (in vitro [41]): 220000
IC50 [42]: 1.3 nM
IC50 [43]: 123 nM
IC50 [44]: 21 nM
IC50 [45]: 190 nM
IC50 [46]: 127 nM
IC50 [47]: 1.6 nM
IC50 [48]: 3.4 nM
